Source: publication PMC5372089, “Synthesis and biological evaluation of novel ursolic acid analogues as potential α-glucosidase inhibitors” (Scientific Reports, 2017)
Read-outs that look alike come from different tables or passages of the source.

Columns and labels:
[1] = molecular target: T1, α-glucosidase from baker's yeast (Saccharomyces cerevisiae, UniProt P53341); test: In vitro α-glucosidase inhibition assay (PNPG substrate, absorbance at 405 nm); format: biochemical
Experimental: In this assay, α-glucosidase from baker’s yeast has been selected and used in this model according to the procedure described in the previous study with a slight modification. The activity of α-glucosidase was determined by monitoring p-nitrophenol (PNP) released from p-nitrophenol-α-D-glycopyranoside (PNPG) at 405 nm. All examined samples of UA analogues were dissolved in DMSO to generate the stock solution, with the concentrations ranging from 5 μM to 4000 μM. During the enzyme inhibitory assay, each sample’s stock solution was diluted with 0.1 M phosphate buffer solution (pH = 6.8), and the final concentration of enzyme solution was 0.1 U/mL. Then 10 min pre-incubation at 37 °C was conducted. After that, the substrate (PNPG, 1 mmol/L) was added to initiate the reaction. The reaction was incubated for 30 min at 37 °C before it was terminated by adding 1 mol/L Na2CO3 solution, and the optical density value was measured at 405 nm by using a Multimodel Plate Reader (Infinite 200). Each assay was performed three times.
The enzyme activity was measured at a fixed substrate concentration, in which a series of sample concentrations were introduced. The IC50 value was […] relative to a control assay with no inhibitor added.
The α-glucosidase inhibition assay was performed according to the method of Worawalai[32] with a slight modification. The α-glucosidase enzyme (0.1 U/mL) and substrate (1 mM p-nitrophenyl-α-D-glucopyranoside) were dissolved in 0.1 M phosphate buffer, pH 6.8. 10 μL of each synthesized analogue (1 mg/mL in DMSO) was pre-incubated with 8 μL of α-glucosidase at 37 °C for 10 min. A 100 μL of substrate solution was then added to the reaction mixture, which was further incubated at 37 °C for 30 min. Then, the reaction was terminated by adding 100 μL of 1 M Na2CO3 solution. Enzymatic activity was quantified by measuring the absorbance at 405 nm with a use of a Multimodel Plate Reader (Infinite 200). The percentage of inhibition was calculated by using [(A0 − A1)/A0] × 100%, where A0 was the absorbance without the sample, and A1 was the absorbance with the sample. The IC50 value was determined from a plot of the percentage of inhibition versus the sample concentration.

[2] = molecular target: T1, α-glucosidase from baker's yeast; parameters: method as in PMID 26406581; details: UA hydroxyl group oxidized into ketone; cited from earlier work
[3] = UA-O and analogues UA-O-a~UA-O-j (Table 2), enzyme 0.1 U/mL, PNPG 1 mM, pH 6.8, 37 °C, mean ± SD, read-out: IC50

T1 sequence (P53341 whole entry): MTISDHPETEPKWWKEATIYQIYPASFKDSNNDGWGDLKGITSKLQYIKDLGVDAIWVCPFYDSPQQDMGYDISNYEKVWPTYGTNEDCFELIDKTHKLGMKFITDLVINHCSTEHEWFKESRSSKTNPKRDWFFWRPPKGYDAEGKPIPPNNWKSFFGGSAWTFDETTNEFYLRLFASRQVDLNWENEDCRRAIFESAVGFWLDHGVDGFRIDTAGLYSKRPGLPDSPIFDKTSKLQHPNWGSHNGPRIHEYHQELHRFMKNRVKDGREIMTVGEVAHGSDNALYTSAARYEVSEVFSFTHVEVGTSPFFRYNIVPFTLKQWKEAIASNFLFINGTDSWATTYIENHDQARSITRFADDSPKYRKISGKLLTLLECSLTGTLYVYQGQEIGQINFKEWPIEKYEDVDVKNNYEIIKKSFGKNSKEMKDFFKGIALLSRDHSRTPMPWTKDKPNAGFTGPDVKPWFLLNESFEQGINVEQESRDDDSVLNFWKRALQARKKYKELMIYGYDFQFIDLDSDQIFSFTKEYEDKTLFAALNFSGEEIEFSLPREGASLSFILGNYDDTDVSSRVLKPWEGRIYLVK

Row | IC50 [1, 3] [µM] | Compound | other results
1 | 4.87 ± 0.41 | (1S,2R,4R,6aS,6bR,12aR,Z)-1,2,6a,6b,9,9,12a-heptamethyl-10-oxo-11-((6-(trifluoromethyl) pyridin-3-yl) methylene)-1,2,3,4,4a,5,6,6a,6b,7,8,8a,9,10,11,12,12a,12b,13,14b-icosahydropicene-4-carboxylic acid [UA-O-f] | 
2 | 1.27 ± 0.2 | (1S,2R,4R,6aS,6bR,12aR)-1,2,6a,6b,9,9,12a-heptamethyl-11-((Z)-4-methylbenzylidene)-10-oxo-1,2,3,4,4a,5,6,6a,6b,7,8,8a,9,10,11,12,12a,12b,13,14b-icosahydropicene-4-carboxylic acid [UA-O-j] | 
3 |  | C[C@@H]1CC[C@]2(C(=O)O)CC[C@]3(C)C(=CCC4[C@@]5(C)CC[C@H](OC(=O)C(Cl)Cl)C(C)(C)C5CC[C@]43C)C2[C@H]1C (stereo partly drawn) [UA-03] | IC50 [1]: 6.72 ± 0.33 µM
4 | 10.3 ± 0.55 | (1S,2R,4R,6aS,6bR,12aR,Z)-1,2,6a,6b,9,9,12a-heptamethyl-10-oxo-11-((E) -3-phenylallylidene)-1,2,3,4,4a,5,6,6a,6b,7,8,8a,9,10,11,12,12a,12b,13,14b-icosahydropicene-4-carboxylic acid [UA-O-b] | 
5 |  | C[C@@H]1CC[C@]2(C(=O)O)CC[C@]3(C)C(=CCC4[C@@]5(C)CC[C@H](OC(=O)c6ccc(Br)cc6F)C(C)(C)C5CC[C@]43C)C2[C@H]1C (stereo partly drawn) [UA-04] | IC50 [1]: 3.94 ± 0.1 µM
6 | 7.87 ± 0.34 | (1S,2R,4R,6aS,6bR,12aR,Z)-1,2,6a,6b,9,9,12a-heptamethyl-10-oxo-11-(pyrazin-2-ylmethylene)-1,2,3,4,4a,5,6,6a,6b,7,8,8a,9,10,11,12,12a,12b,13,14b-icosahydropicene-4-carboxylic acid [UA-O-g] | 
7 |  | C[C@@H]1CC[C@]2(C(=O)O)CC[C@]3(C)C(=CCC4[C@@]5(C)CC[C@H](OC(=O)c6ccco6)C(C)(C)C5CC[C@]43C)C2[C@H]1C (stereo partly drawn) [UA-02] | IC50 [1]: 2.51 ± 0.02 µM
8 |  | C[C@@H]1CC[C@]2(C(=O)O)CC[C@]3(C)C(=CCC4[C@@]5(C)CC[C@H](OC(=O)c6ccccc6)C(C)(C)C5CC[C@]43C)C2[C@H]1C (stereo partly drawn) [UA-01] | IC50 [1]: 4.98 ± 0.21 µM
9 | 3.22 ± 0.78 | (1S,2R,4R,6aS,6bR,12aR)-11-((Z)-3-chlorobenzylidene)-1,2,6a,6b,9,9,12a-heptamethyl-10-oxo-1,2,3,4,4a,5,6,6a,6b,7,8,8a,9,10,11,12,12a,12b,13,14b-icosahydropicene-4-carboxylic acid [UA-O-e] | 
10 | 7.49 ± 0.29 | (1S,2R,4R,6aS,6bR,12aR,Z)-11-((E)-3-(4-fluorophenyl) allylidene)-1,2,6a,6b,9,9,12a-heptamethyl-10-oxo-1,2,3,4,4a,5,6,6a,6b,7,8,8a,9,10,11,12,12a,12b,13,14b-icosahydropicene-4-carboxylic acid [UA-O-c] | 
11 | 1.49 ± 0.14 | (1S,2R,4R,6aS,6bR,12aR)-1,2,6a,6b,9,9,12a-heptamethyl-11-((Z)-4-nitrobenzylidene)-10-oxo-1,2,3,4,4a,5,6,6a,6b,7,8,8a,9,10,11,12,12a,12b,13,14b-icosahydropicene-4-carboxylic acid [UA-O-d] | 
12 | 0.71 ± 0.04 | (1S,2R,4R,6aS,6bR,12aR)-1,2,6a,6b,9,9,12a-heptamethyl-10-oxo-11-((Z)-4-(trifluoromethyl) benzylidene)-1,2,3,4,4a,5,6,6a,6b,7,8,8a,9,10,11,12,12a,12b,13,14b-icosahydropicene-4-carboxylic acid [UA-O-i] | 
13 |  | C[C@@H]1CC[C@]2(C(=O)O)CC[C@]3(C)C(=CCC4[C@@]5(C)CC[C@H](O)C(C)(C)C5CC[C@]43C)C2[C@H]1C (stereo partly drawn) [UA, (1S,2R,4aS,6aS,6bR,10S,12aR) -10-hydroxy-1,2,6a,6b,9,9,12a-heptamethyl-1,2,3,4,4a,5,6,6a,6b,7,8,8a,9,10,11,12,12a,12b,13,14b-icosahydropicene-4a-carboxylic acid, reference compound] | IC50 [1]: 5.08 ± 0.7 µM
14 | 1.17 ± 0.09 | (1S,2R,4R,6aS,6bR,12aR)-11-((Z)-benzylidene)-1,2,6a,6b,9,9,12a-heptamethyl-10-oxo-1,2,3,4,4a,5,6,6a,6b,7,8,8a,9,10,11,12,12a,12b,13,14b-icosahydropicene-4-carboxylic acid [UA-O-a] | 
15 | 3.32 ± 0.17 | (1S,2R,4R,6aS,6bR,12aR,Z)-1,2,6a,6b,9,9,12a-heptamethyl-10-oxo-11-(thiazol-2-ylmethylene)-1,2,3,4,4a,5,6,6a,6b,7,8,8a,9,10,11,12,12a,12b,13,14b-icosahydropicene-4-carboxylic acid [UA-O-h] | 
16 |  | (1S,2R,4R,6aS,6bR,10S,12aR)-1,2,6a,6b,9,9,12a-heptamethyl-10-((4-methylpiperazine-1-carbonyl) oxy)-1,2,3,4,4a,5,6,6a,6b,7,8,8a,9,10,11,12,12a,12b,13,14b-icosahydropicene-4-carboxylic acid [UA-05] | IC50 ([1]; UA ester derivatives (Table 1), enzyme 0.1 U/mL, PNPG 1 mM, pH 6.8, 37 °C, mean ± SD, read-out: IC50): 15.2 ± 0.47 µM

Row | Compound | IC50 [1, 3] [µM] | other results
17 | C[C@@H]1CC[C@]2(C(=O)O)CC[C@]3(C)C(=CCC4[C@@]5(C)CCC(=O)C(C)(C)C5CC[C@]43C)C2[C@H]1C (stereo partly drawn) [UA-O] | 2.47 ± 0.14 | IC50 [2]: 2.47 ± 0.14 µM
